Read-outs that look alike come from different tables or passages of the source. Marks after values point to notes of the source that are not given here.
Legend:
[1] = target: HA-SSTR5 and D2R hetero-oligomer (Homo sapiens, UniProt P14416+P35346); experiment: pbFRET microscopy, CHO-K1 cells co-expressing HA-SSTR5 and D2R; assay type: cell-based
Method: Generally, FRET efficiencies are determined indirectly by measuring changes in the quantum yield of any competitive donor deactivation process upon introduction of an acceptor molecule. Donor photobleaching represents such a competitive process which is exploited in pbFRET-microscopy. The effective FRET efficiency E is calculated from the photobleaching time constants of the donor obtained in the absence (τD−A) and presence (τD+A) of acceptor according to: [formula]
CHO-K1 cells, stably cotransfected with HA-hSSTR5 and D2R, were grown on glass coverslips for 24 hours, treated with various agonists/antagonists for 30 minutes at 37° C., washed and fixed in 1% paraformaldehyde for 30 minutes on ice. […] Coverslips were mounted on microscope slides and used for pbFRET-microscopy the day after.
pbFRET experiments were performed on a Leica DMLB fluorescence microscope equipped with epi-illumination. An OSRAM HBO 100 W Hg lamp was used as excitation light source and the objective was a Leica pl-fluotar 40× oil immersion lens. […] For each cell, a sequence of 20 images was acquired during donor-photobleaching. One image was collected every 4 s with exposure time of 1 s. Exposure as well as time delays were software controlled.
Images were corrected for dark current, background and flatness. For analysis of the photobleaching decay, only the high-intensity plasma membrane region was considered, low intensity background and intracellular regions were masked.
HA-hSSTR5 and D2R were specifically labeled with FITC (donor) and rhodamine (acceptor), respectively using mouse monoclonal antibody against HA and rabbit polyclonal anti-D2R antibody, followed by reaction with FITC conjugated goat anti-mouse and rhodamine conjugated goat anti-rabbit secondary antibody. […] FIG. 4A Left panel: HA-SSTR5 (visualized with mouse anti-HA mAb and FITC-conjugated goat anti-mouse IgG). FIG. 4A Middle panel: D2R (rabbit polyclonal antibody and rhodamine-conjugated goat anti-rabbit IgG). […] Magnification: ×630.
The decrease in donor fluorescence intensity due to photobleaching during prolonged exposure to excitation light was monitored in the absence (FIG. 4B, I-III) or presence (FIG. 4B, IV-VI) of acceptor, i.e. in the potential presence of an additional donor deactivation process, FRET. Cells were reacted with primary antibodies and either with FITC-conjugated goat-anti-mouse IgG (donor in the absence of acceptor) (I-III), or with both FITC-conjugated goat-anti-mouse and rhodamine-conjugated goat-anti-rabbit IgG (donor in the presence of acceptor) (IV-VI). FIG. 4B I. Photobleaching of donor in the absence of acceptor (only selection of images shown). For analysis of the photobleaching decay, only the high-intensity membrane region was considered, low intensity background and intracellular regions were masked (black). […] FIG. 4B II. The average fluorescence intensity of each image was plotted versus the time that the cell had been exposed to excitation light. […] FIG. 4B III. The decrease of fluorescence intensity was analysed for each pixel of the unmasked region and fitted to a single-exponential decay. The resulting time constants were plotted in the histogram shown. […] Photobleaching of donor in the presence of acceptor. […] FIG. 4B, IV-VI.
The photobleaching decay was analyzed for the plasma membrane regions, both on a pixel-by-pixel basis (FIG. 4, III & VI) as well as averaged over each image (FIG. 4, II & V).

HA-SSTR5 and D2R = HA-SSTR5 and D2R (Homo sapiens, UniProt P14416+P35346); conditions: GTPγS 10^−4M, 30 min at 37° C.
wild type hSSTR5 and DOR = wild type hSSTR5 and DOR (Homo sapiens, UniProt P35346+P41143); conditions: for effect on inhibition of radioligand binding induced by GTPγS: [125I] LTT SST-28 radioligand
Source text: LTT SST-28 binding by the cotransfectants. In order to characterize G protein function, wild type hSSTR5 and DOR were stably coexpressed in CHO-K1 cells.

[2] = target: T1, delta318 SSTR5-D2R putative hetero-oligomers (Homo sapiens, UniProt P14416+P35346, DEL319-364); experiment: cell-based; conditions: for effect on SST inhibition of forskolin-stimulated cAMP: pertussis toxin 100 ng/ml pretreatment 2 h, sulpiride 10^−4 M
T1 construct: expressed in transfected cells

[3] = target: T2, delta C-tail hSSTR5 with DOR (Homo sapiens, UniProt P35346+P41143, DEL319-364); experiment: Inhibition of forskolin-stimulated cAMP, delta C-tail hSSTR5 co-expressed with DOR in CHO-K1 cells; assay type: cell-based; conditions: naltrindole (10^−5 M)
T2 construct: expressed in transfected cells

[4] = target: T3, DOR and SSTR5 hetero-oligomer (Homo sapiens, UniProt P35346+P41143); experiment: Inhibition of FSK-stimulated cAMP, hSSTR5/DOR cotransfectants; assay type: cell-based; conditions: SST-14 plus naltrindole
T3 construct: expressed in transfected cells

[5] = i.c.v. in monkeys; cited from earlier work
[6] = intrathecal or epidural; post-operative and neoplastic pain; cited from earlier work

HA-SSTR5 and D2R hetero-oligomer, sequence (P35346 whole entry): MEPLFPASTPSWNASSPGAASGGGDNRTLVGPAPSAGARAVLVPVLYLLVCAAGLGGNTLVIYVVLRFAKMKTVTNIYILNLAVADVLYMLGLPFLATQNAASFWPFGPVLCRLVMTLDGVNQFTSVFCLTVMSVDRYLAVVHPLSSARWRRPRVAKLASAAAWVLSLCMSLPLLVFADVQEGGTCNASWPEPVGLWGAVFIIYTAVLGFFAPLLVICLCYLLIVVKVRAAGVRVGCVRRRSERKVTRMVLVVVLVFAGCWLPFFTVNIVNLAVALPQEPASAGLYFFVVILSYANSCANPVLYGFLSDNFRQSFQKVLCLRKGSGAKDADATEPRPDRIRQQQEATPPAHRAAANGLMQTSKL
HA-SSTR5 and D2R hetero-oligomer, sequence (P14416 whole entry): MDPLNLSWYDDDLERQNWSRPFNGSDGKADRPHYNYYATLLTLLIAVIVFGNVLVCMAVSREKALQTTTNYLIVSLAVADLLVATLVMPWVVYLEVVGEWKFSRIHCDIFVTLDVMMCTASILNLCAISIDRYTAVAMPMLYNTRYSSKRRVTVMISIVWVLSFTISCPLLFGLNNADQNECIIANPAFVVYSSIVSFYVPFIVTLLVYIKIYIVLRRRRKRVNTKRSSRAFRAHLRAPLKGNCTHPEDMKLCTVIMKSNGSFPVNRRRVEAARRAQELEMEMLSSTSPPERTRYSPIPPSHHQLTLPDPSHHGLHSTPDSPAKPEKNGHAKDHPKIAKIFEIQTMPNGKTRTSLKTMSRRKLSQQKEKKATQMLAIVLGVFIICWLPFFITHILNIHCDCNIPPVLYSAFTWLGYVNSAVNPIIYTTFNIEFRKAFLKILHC
wild type hSSTR5 and DOR, sequence (P35346 whole entry): as the sequence (P35346 whole entry) above
wild type hSSTR5 and DOR, sequence (P41143 whole entry): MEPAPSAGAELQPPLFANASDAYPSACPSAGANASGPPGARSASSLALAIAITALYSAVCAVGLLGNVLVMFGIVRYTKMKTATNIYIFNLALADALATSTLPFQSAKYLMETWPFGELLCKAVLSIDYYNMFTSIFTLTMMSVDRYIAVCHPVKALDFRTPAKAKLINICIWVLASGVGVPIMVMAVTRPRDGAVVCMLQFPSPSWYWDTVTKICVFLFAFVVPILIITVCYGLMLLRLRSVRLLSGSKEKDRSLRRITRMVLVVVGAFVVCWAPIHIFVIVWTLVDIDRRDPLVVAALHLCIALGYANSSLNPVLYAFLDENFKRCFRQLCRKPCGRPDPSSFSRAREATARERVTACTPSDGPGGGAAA
T1 sequence (P14416 whole entry, stated change not applied): as the sequence (P14416 whole entry) above
T1 sequence (P35346 1-318, stated change not applied): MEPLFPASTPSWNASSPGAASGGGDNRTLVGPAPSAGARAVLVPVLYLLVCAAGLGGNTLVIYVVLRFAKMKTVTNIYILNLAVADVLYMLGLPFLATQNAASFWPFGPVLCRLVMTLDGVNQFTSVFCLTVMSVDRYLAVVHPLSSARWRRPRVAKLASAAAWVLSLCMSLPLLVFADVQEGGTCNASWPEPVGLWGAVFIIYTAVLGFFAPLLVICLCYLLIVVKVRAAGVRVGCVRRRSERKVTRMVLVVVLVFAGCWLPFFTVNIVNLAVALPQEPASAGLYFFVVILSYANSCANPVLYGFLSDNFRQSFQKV
T2 sequence (P35346 1-318 limits assumed, stated change not applied): as the sequence (P35346 1-318, stated change not applied) above
T2 sequence (P41143 whole entry, stated change not applied): as the sequence (P41143 whole entry) above
HA-SSTR5 and D2R, sequence (P35346 whole entry): as the sequence (P35346 whole entry) above
HA-SSTR5 and D2R, sequence (P14416 whole entry): as the sequence (P14416 whole entry) above
T3 sequence (P35346 whole entry): as the sequence (P35346 whole entry) above
T3 sequence (P41143 whole entry): as the sequence (P41143 whole entry) above

Molecule: CCc1cc(Cl)c(OC)c(C(=O)NC[C@@H]2CCCN2CC)c1O [eticlopride]
- E[%] average effective FRET-efficiency [1]: 3±3%
- τavg[S] mean photobleaching time constant, D + A [1]: D + A: 19.4 ± 0.4 S
- τavg[S] mean photobleaching time constant, D − A [1]: D − A: 18.9 ± 0.3*^) S

Molecule: Nc1nc2c(ncn2[C@@H]2O[C@H](COP(=O)(O)OP(=O)(O)OP(O)(O)=S)[C@@H](O)[C@H]2O)c(=O)[nH]1 [GTPγS]
- decrease in specific radioligand binding (HA-SSTR5 and D2R): 41±3%

Molecule: C[C@@H](NC(=O)[C@@H](N)Cc1ccc(O)cc1)C(=O)NCC(=O)N(C)[C@@H](Cc1ccccc1)C(=O)NCCO [DAMGO, [D-Ala^2, N-MePhe^4, Gly-ol^5]-Enkephalin]
- effect on inhibition of radioligand binding induced by GTPγS (wild type hSSTR5 and DOR): without effect

Molecule: NCCc1ccc(O)c(O)c1 [DA, dopamine]
- inhibition at 1 µM ([2]; CHO-K1, read-out: maximum inhibition of forskolin-stimulated cAMP): 30 ± 1.7%
- E[%] average effective FRET-efficiency [1]: 16±2%
- τavg[S] mean photobleaching time constant, D + A [1]: D + A: 21.3 ± 0.3 S
- τavg[S] mean photobleaching time constant, D − A [1]: D − A: 17.9 ± 0.3 S

Molecule: Oc1ccc2c3c1O[C@H]1c4[nH]c5ccccc5c4C[C@@]4(O)[C@@H](C2)N(CC2CC2)CC[C@]314 [naltrindole]
- effect on SST-14 inhibition of FSK-stimulated cAMP [3]: abolished
- SST-14 induced cAMP inhibition in the presence of the ligand [4]: 20±4%
- effect on inhibition of radioligand binding induced by GTPγS (wild type hSSTR5 and DOR): reversed
- G-protein coupling efficiency (wild type hSSTR5 and DOR; enhancement by DOR ligand): reduced coupling

Molecule: C[C@@H](O)[C@@H]1NC(=O)[C@H](CCCCN)NC(=O)[C@@H](Cc2c[nH]c3ccccc23)NC(=O)[C@H](Cc2ccccc2)NC(=O)[C@@H](NC(=O)[C@H](N)Cc2ccccc2)CSSC[C@@H](C(=O)N[C@H](CO)[C@@H](C)O)NC1=O [octreotide]
- neurobehavioral effect [5]: Parkinsonian syndrome
- analgesic effect [6]: powerful analgesic effects

Molecule: pertussis toxin
- effect on SST inhibition of forskolin-stimulated cAMP [2]: completely abolished

Molecule: CCN1CCCC1CNC(=O)c1cc(S(N)(=O)=O)ccc1OC (stereo not shown) [sulpiride]
- effect on SST inhibition of forskolin-stimulated cAMP [2]: completely abolished
- τavg[S] mean photobleaching time constant, D − A ([1]; donor in absence of acceptor, ± SEM): D − A: 17.9 ± 0.3 S
- τavg[S] mean photobleaching time constant, D + A ([1]; donor in presence of acceptor, ± SEM): D + A: 19.2 ± 0.3 S

— patent publication US20010053848A1, “Hetero-oligomeric G protein-coupled receptors as novel drug targets” (priority 2000, published 2001)
